From PMC11374673, “Discovery of isoquinoline sulfonamides as allosteric gyrase inhibitors with activity against fluoroquinolone-resistant bacteria” (Nature Chemistry, 2024)
Values joined by “and” are separate entries in the source; they are usually repeats but may differ in a detail not shown here. Identical values can stand only once. “Also recorded” adds a separate entry of the source.

Test system: E. coli W3110
Experiment: Checkerboard assay with PMBN;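 on checkerboard plate reading, Average values: OD600 read after 20 h incubation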;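 on checkerboard plate reading, replicate wells: OD600 read after 20 h incubation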

In the case of `O=S(=O)(NC[C@@H]1CC[C@H](c2ccc(-c3cccnc3)cc2)N1)c1cccc2cnccc12` [LEI-800], the “checkerboard plate reading, Average values” (LEI-800 0.0488281 µM + PMBN 16 µM (by position)) is reported as 0.5663, the “checkerboard plate reading, replicate wells” value (LEI-800 0.0488281 µM + PMBN 32 µM) is reported as 0.3631 and 0.3487 and 0.3575 and the “checkerboard plate reading, Average values” (LEI-800 0.0488281 µM + PMBN 32 µM (by position)) is reported as 0.6049. For the same compound, the “checkerboard plate reading, replicate wells” value (LEI-800 0.0976562 µM + PMBN 0 µM) was 0.5677 and 0.5498 and 0.5376, the “checkerboard plate reading, Average values” (LEI-800 0.0976562 µM + PMBN 0 µM (by position)) was 0.5517 and the “checkerboard plate reading, replicate wells” value (LEI-800 0.0976562 µM + PMBN 0.5 µM) was 0.5272 and 0.5363 and 0.6045. For the same compound, the “checkerboard plate reading, Average values” (LEI-800 0.0976562 µM + PMBN 0.5 µM (by position)) was 0.5382, the “checkerboard plate reading, replicate wells” value (LEI-800 0.0976562 µM + PMBN 1 µM) was 0.5455 and 0.5265 and 0.5304 and the “checkerboard plate reading, Average values” (LEI-800 0.0976562 µM + PMBN 1 µM (by position)) was 0.5337. For the same compound, the “checkerboard plate reading, replicate wells” value (LEI-800 0.0976562 µM + PMBN 2 µM) was 0.528 and 0.523 and 0.4812, the “checkerboard plate reading, Average values” (LEI-800 0.0976562 µM + PMBN 2 µM (by position)) was 0.556 and the “checkerboard plate reading, replicate wells” value (LEI-800 0.0976562 µM + PMBN 4 µM) was 0.3324 and 0.3512 and 0.3333. For the same compound, the “checkerboard plate reading, Average values” (LEI-800 0.0976562 µM + PMBN 4 µM (by position)) was 0.5558, the “checkerboard plate reading, replicate wells” value (LEI-800 0.0976562 µM + PMBN 8 µM) was 0.2503 and 0.2429 and 0.246 and the “checkerboard plate reading, Average values” (LEI-800 0.0976562 µM + PMBN 8 µM (by position)) was 0.5538. For the same compound, the “checkerboard plate reading, replicate wells” value (LEI-800 0.0976562 µM + PMBN 16 µM) was 0.2399 and 0.265 and 0.2959, the “checkerboard plate reading, Average values” (LEI-800 0.0976562 µM + PMBN 16 µM (by position)) was 0.5341 and the “checkerboard plate reading, replicate wells” value (LEI-800 0.0976562 µM + PMBN 32 µM) was 0.2697 and 0.2568 and 0.2475. The “checkerboard plate reading, Average values” (LEI-800 0.0976562 µM + PMBN 32 µM (by position)) was 0.5346, the “checkerboard plate reading, Average values” (LEI-800 0.195312 µM + PMBN 0 µM (by position)) was 0.5248 and the “checkerboard plate reading, Average values” (LEI-800 0.195312 µM + PMBN 0.5 µM (by position)) was 0.5135. For the same compound, the “checkerboard plate reading, Average values” (LEI-800 0.195312 µM + PMBN 1 µM (by position)) was 0.5141, the “checkerboard plate reading, Average values” (LEI-800 0.195312 µM + PMBN 2 µM (by position)) was 0.5165 and the “checkerboard plate reading, Average values” (LEI-800 0.195312 µM + PMBN 4 µM (by position)) was 0.4968. For the same compound, the “checkerboard plate reading, Average values” (LEI-800 0.195312 µM + PMBN 8 µM (by position)) was 0.478, the “checkerboard plate reading, Average values” (LEI-800 0.195312 µM + PMBN 16 µM (by position)) was 0.4685 and the “checkerboard plate reading, Average values” (LEI-800 0.195312 µM + PMBN 32 µM (by position)) was 0.4392. For the same compound, the “checkerboard plate reading, Average values” (LEI-800 0.390625 µM + PMBN 0 µM (by position)) was 0.4881, the “checkerboard plate reading, Average values” (LEI-800 0.390625 µM + PMBN 0.5 µM (by position)) was 0.4714 and the “checkerboard plate reading, Average values” (LEI-800 0.390625 µM + PMBN 1 µM (by position)) was 0.4607. For the same compound, the “checkerboard plate reading, Average values” (LEI-800 0.390625 µM + PMBN 2 µM (by position)) was 0.4461, the “checkerboard plate reading, Average values” (LEI-800 0.390625 µM + PMBN 4 µM (by position)) was 0.399 and the “checkerboard plate reading, Average values” (LEI-800 0.390625 µM + PMBN 8 µM (by position)) was 0.3657. For the same compound, the “checkerboard plate reading, Average values” (LEI-800 0.390625 µM + PMBN 16 µM (by position)) was 0.3222, the “checkerboard plate reading, Average values” (LEI-800 0.390625 µM + PMBN 32 µM (by position)) was 0.2778 and the “checkerboard plate reading, Average values” (LEI-800 0.78125 µM + PMBN 0 µM (by position)) was 0.4191. For the same compound, the “checkerboard plate reading, Average values” (LEI-800 0.78125 µM + PMBN 0.5 µM (by position)) was 0.3258, the “checkerboard plate reading, Average values” (LEI-800 0.78125 µM + PMBN 1 µM (by position)) was 0.2348 and the “checkerboard plate reading, Average values” (LEI-800 0.78125 µM + PMBN 2 µM (by position)) was 0.1359. The “checkerboard plate reading, Average values” (LEI-800 0.78125 µM + PMBN 4 µM (by position)) was 0.1369, the “checkerboard plate reading, Average values” (LEI-800 0.78125 µM + PMBN 8 µM (by position)) was 0.1405 and the “checkerboard plate reading, Average values” (LEI-800 0.78125 µM + PMBN 16 µM (by position)) was 0.1463. The “checkerboard plate reading, Average values” (LEI-800 0.78125 µM + PMBN 32 µM (by position)) was 0.1515, the “checkerboard plate reading, Average values” (LEI-800 1.5625 µM + PMBN 0 µM (by position)) was 0.3277 and the “checkerboard plate reading, Average values” (LEI-800 1.5625 µM + PMBN 0.5 µM (by position)) was 0.2628. The “checkerboard plate reading, replicate wells” value (LEI-800 1.5625 µM + PMBN 1 µM) was 0.1569, the “checkerboard plate reading, Average values” (LEI-800 1.5625 µM + PMBN 1 µM (by position)) was 0.2051 and the “checkerboard plate reading, replicate wells” value (LEI-800 1.5625 µM + PMBN 2 µM) was 0.1524 and 0.1433 and 0.1454. The “checkerboard plate reading, Average values” (LEI-800 1.5625 µM + PMBN 2 µM (by position)) was 0.1478, the “checkerboard plate reading, replicate wells” value (LEI-800 1.5625 µM + PMBN 4 µM) was 0.1452 and 0.1502 and 0.1384 and the “checkerboard plate reading, Average values” (LEI-800 1.5625 µM + PMBN 4 µM (by position)) was 0.1494. For the same compound, the “checkerboard plate reading, Average values” (LEI-800 1.5625 µM + PMBN 8 µM (by position)) was 0.1497, the “checkerboard plate reading, Average values” (LEI-800 1.5625 µM + PMBN 16 µM (by position)) was 0.1521 and the “checkerboard plate reading, Average values” (LEI-800 1.5625 µM + PMBN 32 µM (by position)) was 0.1528. The “checkerboard plate reading, replicate wells” value (LEI-800 3.125 µM + PMBN 0 µM) was 0.2026 and 0.2019 and 0.1984, the “checkerboard plate reading, Average values” (LEI-800 3.125 µM + PMBN 0 µM (by position)) was 0.201 and the “checkerboard plate reading, replicate wells” value (LEI-800 3.125 µM + PMBN 0.5 µM) was 0.1489 and 0.151 and 0.1511. The “checkerboard plate reading, replicate wells” value (LEI-800 3.125 µM + PMBN 1 µM) was 0.1556 and 0.1491 and 0.1492, the “checkerboard plate reading, Average values” (LEI-800 3.125 µM + PMBN 1 µM (by position)) was 0.1661 and the “checkerboard plate reading, replicate wells” value (LEI-800 3.125 µM + PMBN 2 µM) was 0.1469 and 0.1488 and 0.1457. The “checkerboard plate reading, Average values” (LEI-800 3.125 µM + PMBN 2 µM (by position)) was 0.1503, the “checkerboard plate reading, replicate wells” value (LEI-800 3.125 µM + PMBN 4 µM) was 0.1605 and 0.1486 and 0.1531 and the “checkerboard plate reading, Average values” (LEI-800 3.125 µM + PMBN 4 µM (by position)) was 0.1504. The “checkerboard plate reading, replicate wells” value (LEI-800 3.125 µM + PMBN 8 µM) was 0.1502 and 0.1529 and 0.1524, the “checkerboard plate reading, Average values” (LEI-800 3.125 µM + PMBN 8 µM (by position)) was 0.1498 and the “checkerboard plate reading, replicate wells” value (LEI-800 3.125 µM + PMBN 16 µM) was 0.1512 and 0.151 and 0.1573. For the same compound, the “checkerboard plate reading, Average values” (LEI-800 3.125 µM + PMBN 16 µM (by position)) was 0.1513, the “checkerboard plate reading, replicate wells” value (LEI-800 3.125 µM + PMBN 32 µM) was 0.1461 and 0.1492 and 0.1481 and the “checkerboard plate reading, Average values” (LEI-800 3.125 µM + PMBN 32 µM (by position)) was 0.1506. For the same compound, the “MIC E. coli + 8 μM PMBN” value (LPS disruption (pharmacological)) was 0.4 µM, the “synergy with PMBN” value (checkerboard) was “potentiates; also recorded: Clear synergy” and the MSC (checkerboard with PMBN, E. coli W3110) was 0.39 µM.
